Measurements published in US11352350B2, “IRAK degraders and uses thereof” (Kymera Therapeutics, Inc., priority 2018, dated 2022).
Like-named read-outs stand apart in the source and are kept apart here.

Assays:
IRAK4 = IRAK4 (Homo sapiens (Human), UniProt Q9NWZ3); assay: IRAK4 MSD degradation in OCI-LY10; assay type: cell-based
In short: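 Remaining IRAK4 quantified by electrochemiluminescent MSD sandwich assay with two anti-IRAK4 antibodies. Compounds were dosed as 8 concentrations in 1:3 steps from a 1 to 10 μM final top on OCI-LY10 cells, incubated 4 to 24 h at 37° C. under 5% CO2. DC50 fitted with a three-parameter logistic curve.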

OCI-LY10 = assay: CTG Cell Viability Assay - OCI-LY10; assay type: cell-based, human; conditions: OCI-LY10, 4 days, read-out: CTG Cell Viability Assay - OCI-LY10: Average external-IC50
In short: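 Viability read by CellTiter-Glo luminescence after 4 days at 37° C under 5% CO2 with compound (top 10 μM final, 1:3 steps, 9 doses, DMSO 0.2%). Three-parameter logistic fit gave IC50.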

[1] = OCI-LY10, 4 hrs, MSD, read-out: IRAK4 MSD degradation in OCI-LY10 at 4 hrs: Average external-Abs DC50
[2] = OCI-LY10, 24 hrs, MSD, read-out: IRAK4 MSD degradation in OCI-LY10 at 24 hrs: Average external-Abs DC50
[3] = OCI-LY10, 4 hrs, read-out: IRAK4 MSD degradation in OCI-LY10 at 4 hrs: DC50
[4] = OCI-LY10, 24 hrs, read-out: IRAK4 MSD degradation in OCI-LY10 at 24 hrs: DC50

Chain of IRAK4 (Q9NWZ3 whole entry): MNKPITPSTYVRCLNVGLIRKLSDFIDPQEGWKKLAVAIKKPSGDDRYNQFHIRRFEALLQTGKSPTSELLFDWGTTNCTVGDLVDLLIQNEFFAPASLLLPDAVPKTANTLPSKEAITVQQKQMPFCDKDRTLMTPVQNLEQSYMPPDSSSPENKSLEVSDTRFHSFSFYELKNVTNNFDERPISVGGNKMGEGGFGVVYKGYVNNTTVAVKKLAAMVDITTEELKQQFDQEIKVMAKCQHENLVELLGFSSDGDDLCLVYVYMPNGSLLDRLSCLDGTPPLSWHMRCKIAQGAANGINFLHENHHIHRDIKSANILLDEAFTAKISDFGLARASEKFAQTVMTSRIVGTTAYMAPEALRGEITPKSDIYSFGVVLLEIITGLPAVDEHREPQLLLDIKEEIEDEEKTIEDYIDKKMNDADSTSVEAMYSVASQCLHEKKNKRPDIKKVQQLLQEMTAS

| Compound | DC50 (IRAK4; [1]) | IC50 (OCI-LY10; Homo sapiens, OCI-Ly10, 96 h) | DC50 (IRAK4; [2]) | DC50 (IRAK4; [3]) | DC50 (IRAK4; [4]) | IC50 (OCI-LY10) |
| --- | --- | --- | --- | --- | --- | --- |
| Cn1c(=O)n(C2CCC(=O)NC2=O)c2cccc(CCCOC3CCN(C[C@H]4CC[C@H](n5cc(NC(=O)c6cnn7ccc(N8CCOCC8)nc67)c(C(C)(C)O)n5)CC4)CC3)c21 (stereo partly drawn) [I-216] | 100 to 1000 nM | > 1000 nM |  |  |  |  |
| CN(C(=O)c1coc(-c2ccnc(NCC3CC3)c2)n1)c1cn([C@H]2CC[C@H](CN(C)C3CCN(Cc4cccc5c4n(C)c(=O)n5C4CCC(=O)NC4=O)CC3)CC2)nc1C(F)F (stereo partly drawn) [I-395] | 100 to 1000 nM | > 1000 nM |  |  |  |  |
| CN(C[C@H]1CC[C@H](n2cc(NC(=O)c3cnn4ccc(N5CCOCC5)nc34)c(C(F)F)n2)CC1)[C@H]1CC[C@@H](Nc2cccc3c2C(=O)N(C2CCC(=O)NC2=O)C3=O)CC1 (stereo partly drawn) [I-350] | 100 to 1000 nM | > 1000 nM | 10 to 100 nM |  |  |  |
| Cn1c(=O)n(C2CCC(=O)NC2=O)c2cccc(CN3CCC(CCN4CCC(n5cc(NC(=O)c6cnn7ccc(N8CCOCC8)nc67)c(C(F)F)n5)CC4)CC3)c21 (stereo not drawn) [I-177] | < 10 nM | 100 to 500 nM |  |  |  |  |
| CN(C[C@H]1CC[C@H](C2N=C(NC(=O)c3cnn4ccc(N5CCOCC5)nc34)C(C(F)F)=N2)CC1)C1CCC(CNc2cccc3c2C(=O)N(C2CCC(=O)NC2=O)C3=O)CC1 (stereo partly drawn) [I-459] |  | < 50 nM |  | 100 to 1000 nM | 10 to 100 nM |  |
| Cn1c(=O)n(C2CCC(=O)NC2=O)c2cccc(CCCOC3CCN(C[C@H]4CC[C@H](n5cc(NC(=O)c6cnn7ccc(N[C@@H]8CCCC[C@@H]8O)nc67)c(C(F)(F)F)n5)CC4)CC3)c21 (stereo partly drawn) [I-153] | 10 to 100 nM | > 1000 nM |  |  |  |  |
| O=C1CCC(N2C(=O)c3cccc(NCCCOCCCOCCCN4CCC(n5cc(NC(=O)c6cnn7ccc(N8C[C@H]9C[C@@H]8CO9)nc67)c(C(F)F)n5)CC4)c3C2=O)C(=O)N1 (stereo partly drawn) [I-321] | 100 to 1000 nM |  |  |  |  | > 1000 nM |
| CN(C[C@H]1CC[C@H](n2cc(NC(=O)c3cnn4ccc(NCCC(C)(C)O)nc34)c(C(F)F)n2)CC1)[C@H]1CC[C@H](Nc2cccc3c2C(=O)N(C2CCC(=O)NC2=O)C3=O)CC1 (stereo partly drawn) [I-502] |  | < 50 nM |  | < 10 nM | < 10 nM |  |
| O=C1CCC(N2C(=O)c3cccc(NCCCOC4CCN(C[C@H]5CC[C@H](n6cc(NC(=O)c7cnn8ccc(N9C[C@H]%10C[C@@H]9CO%10)nc78)c(C(F)F)n6)CC5)CC4)c3C2=O)C(=O)N1 (stereo partly drawn) [I-371] |  | 50 to 100 nM | 10 to 100 nM |  |  |  |
| O=C1CCC(N2C(=O)c3cccc(NCCCOC[C@@H]4CN(C[C@H]5CC[C@H](n6cc(NC(=O)c7coc(-c8ccnc(NCC9CC9)c8)n7)c(C(F)F)n6)CC5)CCO4)c3C2=O)C(=O)N1 (stereo partly drawn) [I-353] | 10 to 100 nM | 100 to 500 nM | 10 to 100 nM |  |  |  |
| Cc1nc2cccc(OCCCOC3CCN(C[C@H]4CC[C@H](n5cc(NC(=O)c6cnn7ccc(N8CCOCC8)nc67)c(C(F)F)n5)CC4)CC3)c2c(=O)n1C1CCC(=O)NC1=O (stereo partly drawn) [I-215] | > 1000 nM | > 1000 nM | > 1000 nM |  |  |  |
| Cn1c(=O)n(C2CCC(=O)NC2=O)c2cccc(CCCOC3CCN(C[C@H]4CC[C@H](n5cc(NC(=O)c6cnn7ccc(NCC8CC8)nc67)c(C(F)F)n5)CC4)CC3)c21 (stereo partly drawn) [I-156] | 10 to 100 nM | > 1000 nM |  |  |  |  |
| Cc1ncsc1-c1ccc(CNC(=O)[C@@H]2C[C@@H](O)CN2C(=O)[C@@H](NC(=O)COCCOCCOCCOCC(=O)N2CCN(C3CCC(Nc4ncnc5cc(CC#N)ccc45)CC3)CC2)C(C)(C)C)cc1 (stereo partly drawn) [I-49] | > 1000 nM | > 1000 nM |  |  |  |  |
| O=C1CCC(N2C(=O)c3cccc(N4CCC(CCCN5CCC(n6cc(NC(=O)c7cnn8ccc(N[C@@H]9CCCC[C@@H]9O)nc78)c(C(F)F)n6)CC5)CC4)c3C2=O)C(=O)N1 (stereo partly drawn) [I-298] | 100 to 1000 nM | 100 to 500 nM |  |  |  |  |
| CN(C[C@H]1CC[C@H](n2cc(NC(=O)c3cnn4ccc(N5CCOCC5)nc34)c(C(F)F)n2)CC1)[C@H]1C[C@H](Nc2cccc3c2C(=O)N(C2CCC(=O)NC2=O)C3=O)C1 (stereo partly drawn) [I-458] |  | > 1000 nM |  | 100 to 1000 nM | > 1000 nM |  |
| CN(CCC#CCN)C[C@H]1CC[C@H](n2cc(NC(=O)c3cnn4ccc(N5CCOCC5)nc34)c(C(F)F)n2)CC1 [I-412, N-[1-[4-[[5-aminopent-3-ynyl(methyl)amino]methyl]cyclohexyl]-3-(difluoromethyl)pyrazol-4-yl]-5-morpholino-pyrazolo [1,5-a]pyrimidine-3-carboxamide] | > 1000 nM | > 1000 nM | > 1000 nM |  |  |  |
| Cn1c(=O)n(C2CCC(=O)NC2=O)c2cccc(CCCOC3CCN(C[C@H]4CC[C@H](n5cc(NC(=O)c6cnn7ccc(NCC8CC8)nc67)c(C(C)(C)O)n5)CC4)CC3)c21 (stereo partly drawn) [I-267] | 100 to 1000 nM |  |  |  |  | > 1000 nM |

| Compound | DC50 (IRAK4; [1]) | IC50 (OCI-LY10; Homo sapiens, OCI-Ly10, 96 h) | DC50 (IRAK4; [2]) | DC50 (IRAK4; [3]) | DC50 (IRAK4; [4]) | IC50 (OCI-LY10) |
| --- | --- | --- | --- | --- | --- | --- |
| CC[C@@H]1[C@H](F)C(=O)N[C@@H]1COc1ncc(C#CC2CCN(CCOCCNc3cccc4c3C(=O)N(C3CCC(=O)NC3=O)C4=O)CC2)c2cc(C(N)=O)c(OC)cc12 (stereo partly drawn) [I-357, 4-[2-[1-[2-[2-[[2-(2,6-dioxo-3-piperidyl)-1,3-dioxo-isoindolin-4-yl]amino]ethoxy]ethyl]-4-piperidyl]ethynyl]-1-[[(2S,3S,4S)-3-ethyl-4-fluoro-5-oxo-pyrrolidin-2-yl]methoxy]-7-methoxy-isoquinoline-6-carboxamide] | > 1000 nM | > 1000 nM |  |  |  |  |
| Cn1c(=O)n(C2CCC(=O)NC2=O)c2cccc(CN3CCC(N(C)[C@H]4CC[C@H](Oc5ncnc6ccc(C#N)cc56)CC4)CC3)c21 (stereo partly drawn) [I-270] | > 1000 nM | > 1000 nM | > 1000 nM |  |  |  |
| C=C(C)c1nn([C@H]2CC[C@H](CN3CCC(OCCCc4cccc5c4n(C)c(=O)n5C4CCC(=O)NC4=O)CC3)CC2)cc1NC(=O)c1cnn2ccc(NCC3CC3)nc12 (stereo partly drawn) [I-172] | 100 to 1000 nM | > 1000 nM |  |  |  |  |
| CN(CCN1CCO[C@H](CCNc2cccc3c2C(=O)N(C2CCC(=O)NC2=O)C3=O)C1)C[C@H]1CC[C@H](n2cc(NC(=O)c3cnn4ccc(N5C[C@H]6C[C@@H]5CO6)nc34)c(C(F)F)n2)CC1 (stereo partly drawn) [I-340] | 100 to 1000 nM | 100 to 500 nM | 10 to 100 nM |  |  |  |
| O=C1CCC(N2Cc3c(OCc4ccc(CN5CCN(C[C@H]6CC[C@H](n7cc(NC(=O)c8cnn9ccc(N%10CCOCC%10)nc89)c(C(F)F)n7)CC6)CC5)cc4)cccc3C2=O)C(=O)N1 (stereo partly drawn) [I-377] | > 1000 nM | < 50 nM | < 10 nM |  |  |  |
| C[C@H]1CN(c2ccn3ncc(C(=O)Nc4cn([C@H]5CC[C@H](CN6CCC(OCCCc7cccc8c7n(C)c(=O)n8C7CCC(=O)NC7=O)CC6)CC5)nc4C(F)F)c3n2)C[C@H](C)O1 (stereo partly drawn) [I-285] | 10 to 100 nM | > 1000 nM |  |  |  |  |
| Cn1c(=O)n(C2CCC(=O)NC2=O)c2cccc(CCCOC3CCN([C@H]4CC[C@H](Nc5ncnc6ccc(C#N)cc56)CC4)CC3)c21 (stereo partly drawn) [I-304, 4-[[4-[4-[3-[1-(2,6-dioxo-3-piperidyl)-3-methyl-2-oxo-benzimidazol-4-yl]propoxy]-1-piperidyl]cyclohexyl]amino] quinazoline-6-carbonitrile] | > 1000 nM | > 1000 nM | > 1000 nM |  |  |  |
| Cn1c(=O)n(C2CCC(=O)NC2=O)c2cccc(CCCOCCC(=O)N3CCN([C@H]4CC[C@H](Nc5ncnc6ccc(C#N)cc56)CC4)CC3)c21 (stereo partly drawn) [I-159] | > 1000 nM | > 1000 nM | > 1000 nM |  |  |  |
| Cn1c(=N)n(C2CCC(=O)NC2=O)c2ccc(CCCOCCCN3CCC(n4cc(NC(=O)c5cnn6ccc(N7CCOCC7)nc56)c(C(F)F)n4)CC3)cc21 (stereo not drawn) [I-179] | 100 to 1000 nM | > 1000 nM |  |  |  |  |
| CN(CCc1ccc(CNc2cccc3c2C(=O)N(C2CCC(=O)NC2=O)C3=O)cc1)C[C@H]1CC[C@H](n2cc(NC(=O)c3cnn4ccc(N5C[C@H]6C[C@@H]5CO6)nc34)c(C(F)F)n2)CC1 (stereo partly drawn) [I-359] | > 1000 nM | < 50 nM | > 1000 nM |  |  |  |
| O=C1CCC(N2C(=O)c3cccc(NCCC4CCN(C[C@H]5CC[C@H](n6cc(NC(=O)c7cnn8ccc(N9CCOCC9)nc78)c(C(F)F)n6)CC5)CC4)c3C2=O)C(=O)N1 (stereo partly drawn) [I-365] | 10 to 100 nM | < 50 nM |  |  |  |  |
| CN(CCCCCCCNC(=O)c1ccc(CNCc2ccc(-c3ccc4c(cnn4CC4CC4)c3)cc2)cc1)C[C@H]1CC[C@H](n2cc(NC(=O)c3coc(-c4ccnc(NCC5CC5)c4)n3)c(C(F)F)n2)CC1 [I-135] | 100 to 1000 nM | > 1000 nM | > 1000 nM |  |  |  |
| CN(CC1CC1)c1ccn2ncc(C(=O)Nc3cn([C@H]4CC[C@H](CN(C)[C@H]5CC[C@H](Nc6cccc7c6C(=O)N(C6CCC(=O)NC6=O)C7=O)CC5)CC4)nc3C(F)F)c2n1 (stereo partly drawn) [I-455] |  | 50 to 100 nM |  | 10 to 100 nM | 10 to 100 nM |  |
| Cc1c[nH]c2ncnc(N[C@H]3CC[C@H](N4CCN(C(=O)CCOCCCc5ccc6c(c5)n(C)c(=O)n6C5CCC(=O)NC5=O)CC4)CC3)c12 (stereo partly drawn) [I-24] | > 1000 nM | > 1000 nM | > 1000 nM |  |  |  |
| CC[C@H]1C(COc2ncc(C#C[C@H]3CC[C@H](CN(C)Cc4ccc(CCNc5cccc6c5C(=O)N(C5CCC(=O)NC5=O)C6=O)cc4)CC3)c3cc(C(N)=O)c(OC)cc23)NC(=O)[C@H]1F (stereo partly drawn) [I-329] | 100 to 1000 nM | > 1000 nM |  |  |  |  |
| Cn1c(=O)n(C2CCC(=O)NC2=O)c2cccc(CCCO[C@H]3CC[C@H](CN4CCC(n5cc(NC(=O)c6cnn7ccc(N8CCOCC8)nc67)c(C(F)F)n5)CC4)CC3)c21 (stereo partly drawn) [I-200] | < 10 nM | 50 to 100 nM |  |  |  |  |
| CN(CCCN(C)C[C@H]1CC[C@H](n2cc(NC(=O)c3coc(-c4ccnc(NCC5CC5)c4)n3)c(C(F)F)n2)CC1)Cc1cccc2c1n(C)c(=O)n2C1CCC(=O)NC1=O (stereo partly drawn) [I-242] | < 10 nM | 500 to 1000 nM |  |  |  |  |
